Read-outs that look alike come from different tables or passages of the source. No end group written: not given here.
Tests used:
[1] = rats, Tang-Christensen et al., cited from earlier work
[2] = Appetite suppression in mice: sucrose consumption, tested immediately after intraperitoneal injection; assay type: in vivo; conditions: 85 micrograms (3.4 mg/kg) intraperitoneally, 10 minute period, p-value 0.002
Procedure: Mice were deprived of their normal food for two days and given free access to a 20% sucrose solution on the first day of food deprivation. After the two day food deprivation period, the mice were injected intraperitoneally with 0.5ml of a solution containing the test substance. Immediately after injection, individual mice were placed in one of eight 15 cm square test boxes with a stainless steel grid floor and a glass drinking tube which projected into the box. […] Consumption of the sucrose solution was measured over a 10 minute period by electronically recording the total amount of contact with the sucrose solution during the test session. The degree of appetite suppression produced by a given test substance was determined by statistical comparison of the mean duration of sucrose consumption by control (vehicle treated) mice with that of mice treated with a test substance. The degree of appetite suppression in a treated group of mice was expressed as percent difference between the test and control group's response duration means. […]

[3] = iv infusion of GLP-1(7-36)amide in healthy human volunteers: visual analogue scale ratings and ad libitum lunch energy intake; assay type: in vivo; conditions: iv infusion 50 pmol/(kg·h)
Source text: Healthy human volunteers (20 subjects) were in a double-blind crossover trial given an iv infusion of 50 pmol/(kg·h) of GLP-1(7-36)amide or saline on separate, but otherwise identical experimental days. The infusion was started at 9.00 and lasted until 15.00. At 9.45 the subjects received a fixed amount of breakfast and at 14.15 they had lunch of an identical composition but ad libitum. The subjects rated their feeling of satiety, hunger, fullness and appetite on a visual analogue scale every half hour. The results are given below:
The energy intake of each subjects was measured. The intakes were 3.9 MJ with GLP-1 and 4.3 MJ with Saline resulting in a p-value of 0.009.

[4] = rats, Turton et al., cited from earlier work
[5] = Suppression of appetite in mice by subcutaneously injected synthetic GLP-1(7-36)amide: Complan consumption; assay type: in vivo; conditions: p<0.001
Procedure: The test method was as described in Example 3 except that the mice were pre-exposed to formula milk (Complan®—a nutritionally complete infant milk substitute) for one day, then fasted […]. On the test day, consumption of Complan® was measured for each mouse during a 10 min period.
Mice were tested for appetite suppression by subcutaneous injection of GLP-1(7-36)amide dissolved in phosphate buffered saline.

[6] = administered intracerebroventricularly

Row | Substance | effect on food intake ([1]; route not stated) | suppression of sucrose consumption [2] [%] | energy intake ([3]; ad libitum lunch, saline 4.3 MJ, p-value 0.009) [mJ] | Satiety (visual analogue scale) ([3]; versus saline, p = 0.006) | Appetite (visual analogue scale) ([3]; versus saline, p = 0.007) | Hunger (visual analogue scale) ([3]; versus saline, p = 0.007) | Fullness (visual analogue scale) ([3]; versus saline, p = 0.010) | effect on food intake [1, 6] | effect on food intake ([1]; peripherally administered) | effect on food intake [4, 6] | effect on food intake ([4]; peripheral administration) | suppression of feeding ([5]; 1 mg/kg subcutaneous, 30 min after injection) [%] | maximum effect, suppression of feeding ([5]; 20 mg/kg subcutaneous (highest dose tested)) [%]
1 | GLP-1(1-36)amide (HDEFERHAEGTFTSDVSSYLEGQAAKEFIAWLVKGR-NH2; UniProt P01275 92-127, looked up, fragment) [fragment 1-36 of GLP-1, C-terminal amide] | no effect |  |  |  |  |  |  |  |  |  |  |  | 
2 | GLP-1(7-36)amide |  | 60 | 3.9 | GLP-1 > Saline, p = 0.006 | GLP-1 < Saline, p = 0.007 | GLP-1 < Saline, p = 0.007 | GLP-1 > Saline, p = 0.010 | profound effect | no significant effect | profound effect | inactive | 45 | 60
